Values after ≈ are worked out from the molar mass of the structure shown.
Assays:
[1] = system: Staphylococcus aureus S13E; details: agar dilution
Streptococcus pyogenes = experiment: Experimental bacterial infection in mice, ED50; format: in vivo; details: two doses, administered subcutaneously
Streptococcus pneumoniae = experiment: Experimental bacterial infection in mice, ED50; format: in vivo; details: two doses, administered subcutaneously
[2] = system: Streptococcus faecium ATCC 9790; details: agar dilution
[3] = system: Haemophilus influenzae 76; details: agar dilution
Escherichia coli TEM = details: agar dilution
[4] = system: Streptococcus pyogenes C203; details: agar dilution
[5] = system: Staphylococcus aureus V41; details: agar dilution
[6] = system: Staphylococcus aureus X400; details: agar dilution
[7] = system: Klebsiella pneumoniae X68; details: agar dilution
Staphylococcus aureus = experiment: Experimental bacterial infection in mice, ED50; format: in vivo; details: two doses, administered subcutaneously
[8] = system: Klebsiella pneumoniae KAE; details: agar dilution
[9] = system: Haemophilus influenzae C.L.; details: agar dilution
[10] = system: Staphylococcus aureus NRRL B313; details: agar dilution
[11] = system: Staphylococcus epidermidis EPI1; details: agar dilution
[12] = system: Staphylococcus epidermidis 222; details: agar dilution
Escherichia coli EC14 = details: agar dilution
[13] = system: Klebsiella pneumoniae X26; details: agar dilution
Escherichia coli N10 = details: agar dilution
[14] = system: Streptococcus pneumoniae Park 1; details: agar dilution
[15] = system: Streptococcus sp. group D 2041; details: agar dilution

| SMILES | MIC [1] [µg/mL] | ED50 (Streptococcus pyogenes) | ED50 (Streptococcus pneumoniae) | MIC [2] [µg/mL] | MIC [3] | MIC (Escherichia coli TEM) | MIC [4] [µg/mL] | MIC [5] [µg/mL] | MIC [6] [µg/mL] | MIC [7] | MIC [8] | MIC [9] | MIC [10] [µg/mL] | MIC [11] [µg/mL] | MIC [12] [µg/mL] | MIC (Escherichia coli EC14) | MIC [13] | MIC (Escherichia coli N10) | MIC [14] [µg/mL] | MIC [15] [µg/mL] | further results |
| --- | --- | --- | --- | --- | --- | --- | --- | --- | --- | --- | --- | --- | --- | --- | --- | --- | --- | --- | --- | --- | --- |
| CCCCCCCCCCCC(=O)NC1(C)CC(OC2C(Oc3c4cc5cc3Oc3ccc(cc3Cl)C(O)C3NC(=O)C(NC(=O)C5NC(=O)C(CC(N)=O)NC(=O)C(NC(=O)C(CC(C)C)NC)C(O)c5ccc(c(Cl)c5)O4)c4ccc(O)c(c4)-c4c(O)cc(O)cc4C(C(=O)O)NC3=O)OC(CO)C(O)C2O)OC(C)C1O (stereo not drawn) [Compound 12, N^van --(1-oxo-n-dodecyl)vancomycin] | 0.5 (≈ 0.306 µM) | 1.6 mg/kg/2 | 0.9 mg/kg/2 | 0.5 (≈ 0.306 µM) | -- (not active at 128 mcg/ml) | -- (not active at 128 mcg/ml) | 0.5 (≈ 0.306 µM) | 0.25 (≈ 0.153 µM) | 0.5 (≈ 0.306 µM) | -- (not active at 128 mcg/ml) | -- (not active at 128 mcg/ml) | -- (not active at 128 mcg/ml) | 0.25 (≈ 0.153 µM) | 2 (≈ 1.23 µM) | 0.5 (≈ 0.306 µM) | -- (not active at 128 mcg/ml) | -- (not active at 128 mcg/ml) | -- (not active at 128 mcg/ml) | 0.5 (≈ 0.306 µM) | 0.5 (≈ 0.306 µM) | ED50 (Staphylococcus aureus): 6.8 mg/kg/2 |
| CN[C@H](CC(C)C)C(=O)N[C@H]1C(=O)N[C@@H](CC(N)=O)C(=O)N[C@H]2C(=O)N[C@H]3C(=O)N[C@H](C(=O)N[C@H](C(=O)O)c4cc(O)cc(O)c4-c4cc3ccc4O)[C@H](O)c3ccc(c(Cl)c3)Oc3cc2cc(c3O[C@@H]2O[C@H](CO)[C@@H](O)[C@H](O)[C@H]2O[C@H]2C[C@](C)(N)[C@H](O)[C@H](C)O2)Oc2ccc(cc2Cl)[C@H]1O [vancomycin, reference compound] | – | 0.99-1.1 mg/kg/2 | 0.90-0.93 mg/kg/2 | – | – | – | – | – | – | – | – | – | – | – | – | – | – | – | – | – | ED50 (Staphylococcus aureus): 1.8-3.7 mg/kg/2 |
| CCCCCCCC(=O)NC1(C)CC(OC2C(Oc3c4cc5cc3Oc3ccc(cc3Cl)C(O)C3NC(=O)C(NC(=O)C5NC(=O)C(CC(N)=O)NC(=O)C(NC(=O)C(CC(C)C)NC)C(O)c5ccc(c(Cl)c5)O4)c4ccc(O)c(c4)-c4c(O)cc(O)cc4C(C(=O)O)NC3=O)OC(CO)C(O)C2O)OC(C)C1O (stereo not drawn) [Compound 3, N^van --(1-oxo-n-octyl)vancomycin] | 2 (≈ 1.27 µM) | 4.4 mg/kg/2 | 4.8 mg/kg/2 | 2 (≈ 1.27 µM) | -- (not active at 128 mcg/ml) | -- (not active at 128 mcg/ml) | 0.5 (≈ 0.317 µM) | 2 (≈ 1.27 µM) | 2 (≈ 1.27 µM) | -- (not active at 128 mcg/ml) | -- (not active at 128 mcg/ml) | -- (not active at 128 mcg/ml) | 1 (≈ 0.635 µM) | 8 (≈ 5.08 µM) | 2 (≈ 1.27 µM) | -- (not active at 128 mcg/ml) | -- (not active at 128 mcg/ml) | -- (not active at 128 mcg/ml) | 0.5 (≈ 0.317 µM) | 4 (≈ 2.54 µM) | ED50 (Staphylococcus aureus): 6.9 mg/kg/2 |
| CCCCCC(=O)NC1(C)CC(OC2C(Oc3c4cc5cc3Oc3ccc(cc3Cl)C(O)C3NC(=O)C(NC(=O)C5NC(=O)C(CC(N)=O)NC(=O)C(NC(=O)C(CC(C)C)NC)C(O)c5ccc(c(Cl)c5)O4)c4ccc(O)c(c4)-c4c(O)cc(O)cc4C(C(=O)O)NC3=O)OC(CO)C(O)C2O)OC(C)C1O (stereo not drawn) [Compound 2, N^van --(1-oxo-n-hexyl)vancomycin] | 4 (≈ 2.58 µM) | 12.9 mg/kg/2 | 3.5 mg/kg/2 | 4 (≈ 2.58 µM) | 128 µg/mL (≈ 82.7 µM) | -- (not active at 128 mcg/ml) | 2 (≈ 1.29 µM) | 4 (≈ 2.58 µM) | 4 (≈ 2.58 µM) | -- (not active at 128 mcg/ml) | -- (not active at 128 mcg/ml) | -- (not active at 128 mcg/ml) | 2 (≈ 1.29 µM) | 16 (≈ 10.3 µM) | 8 (≈ 5.17 µM) | -- (not active at 128 mcg/ml) | -- (not active at 128 mcg/ml) | -- (not active at 128 mcg/ml) | 2 (≈ 1.29 µM) | 16 (≈ 10.3 µM) | ED50 (Staphylococcus aureus): 11.2 mg/kg/2 |
| CNC(CC(C)C)C(=O)NC1C(=O)NC(CC(N)=O)C(=O)NC2C(=O)NC3C(=O)NC(C(=O)NC(C(=O)O)c4cc(O)cc(O)c4-c4cc3ccc4O)C(O)c3ccc(c(Cl)c3)Oc3cc2cc(c3OC2OC(CO)C(O)C(O)C2OC2CC(C)(NC(=O)C(NC(=O)OCc3ccccc3)C(C)C)C(O)C(C)O2)Oc2ccc(cc2Cl)C1O (stereo not drawn) [Compound 32, N^van-[2-(N--Cbz--amino)-1-oxo-isopentyl]vancomycin] | 4 (≈ 2.38 µM) | – | – | 4 (≈ 2.38 µM) | 128 µg/mL (≈ 76.1 µM) | -- (not active at 128 mcg/ml) | 2 (≈ 1.19 µM) | 4 (≈ 2.38 µM) | 8 (≈ 4.75 µM) | -- (not active at 128 mcg/ml) | -- (not active at 128 mcg/ml) | 128 µg/mL (≈ 76.1 µM) | 4 (≈ 2.38 µM) | 32 (≈ 19 µM) | 8 (≈ 4.75 µM) | -- (not active at 128 mcg/ml) | -- (not active at 128 mcg/ml) | -- (not active at 128 mcg/ml) | 2 (≈ 1.19 µM) | 8 (≈ 4.75 µM) | – |
| CCCCCCCC(=O)N(C)C(CC(C)C)C(=O)NC1C(=O)NC(CC(N)=O)C(=O)NC2C(=O)NC3C(=O)NC(C(=O)NC(C(=O)O)c4cc(O)cc(O)c4-c4cc3ccc4O)C(O)c3ccc(c(Cl)c3)Oc3cc2cc(c3OC2OC(CO)C(O)C(O)C2OC2CC(C)(N)C(O)C(C)O2)Oc2ccc(cc2Cl)C1O (stereo not drawn) [Compound 4, N^leu --(1-oxo-n-octyl)vancomycin] | 8 (≈ 5.08 µM) | – | – | 8 (≈ 5.08 µM) | -- (not active at 128 mcg/ml) | -- (not active at 128 mcg/ml) | 4 (≈ 2.54 µM) | 8 (≈ 5.08 µM) | 8 (≈ 5.08 µM) | -- (not active at 128 mcg/ml) | -- (not active at 128 mcg/ml) | -- (not active at 128 mcg/ml) | 8 (≈ 5.08 µM) | 32 (≈ 20.3 µM) | 16 (≈ 10.2 µM) | -- (not active at 128 mcg/ml) | -- (not active at 128 mcg/ml) | -- (not active at 128 mcg/ml) | 2 (≈ 1.27 µM) | 16 (≈ 10.2 µM) | – |
| CCCCCCCCCCCC(=O)N(C)C(CC(C)C)C(=O)NC1C(=O)NC(CC(N)=O)C(=O)NC2C(=O)NC3C(=O)NC(C(=O)NC(C(=O)O)c4cc(O)cc(O)c4-c4cc3ccc4O)C(O)c3ccc(c(Cl)c3)Oc3cc2cc(c3OC2OC(CO)C(O)C(O)C2OC2CC(C)(N)C(O)C(C)O2)Oc2ccc(cc2Cl)C1O (stereo not drawn) [Compound 13, N^leu --(1-oxo-n-dodecyl)vancomycin] | 8 (≈ 4.9 µM) | – | – | 8 (≈ 4.9 µM) | 32 µg/mL (≈ 19.6 µM) | -- (not active at 128 mcg/ml) | 8 (≈ 4.9 µM) | 8 (≈ 4.9 µM) | 8 (≈ 4.9 µM) | -- (not active at 128 mcg/ml) | -- (not active at 128 mcg/ml) | 128 µg/mL (≈ 78.5 µM) | 8 (≈ 4.9 µM) | 32 (≈ 19.6 µM) | 8 (≈ 4.9 µM) | -- (not active at 128 mcg/ml) | -- (not active at 128 mcg/ml) | -- (not active at 128 mcg/ml) | 8 (≈ 4.9 µM) | 8 (≈ 4.9 µM) | – |
| CNC(CC(C)C)C(=O)NC1C(=O)NC(CC(N)=O)C(=O)NC2C(=O)NC3C(=O)NC(C(=O)NC(C(=O)O)c4cc(O)cc(O)c4-c4cc3ccc4O)C(O)c3ccc(c(Cl)c3)Oc3cc2cc(c3OC2OC(CO)C(O)C(O)C2OC2CC(C)(NC(=O)CCC(C)=O)C(O)C(C)O2)Oc2ccc(cc2Cl)C1O (stereo not drawn) [Compound 36, N^van --(3-acetyl-1-oxo-n-propyl)vancomycin] | 4 (≈ 2.59 µM) | – | – | 4 (≈ 2.59 µM) | -- (not active at 128 mcg/ml) | -- (not active at 128 mcg/ml) | 1 (≈ 0.646 µM) | 2 (≈ 1.29 µM) | 2 (≈ 1.29 µM) | -- (not active at 128 mcg/ml) | -- (not active at 128 mcg/ml) | -- (not active at 128 mcg/ml) | 2 (≈ 1.29 µM) | 16 (≈ 10.3 µM) | 4 (≈ 2.59 µM) | -- (not active at 128 mcg/ml) | -- (not active at 128 mcg/ml) | -- (not active at 128 mcg/ml) | 1 (≈ 0.646 µM) | 8 (≈ 5.17 µM) | – |
